Results reported in paper PMC10303271, “Synthesis and Receptor Binding Studies of α5 GABAAR Selective Novel Imidazodiazepines Targeted for Psychiatric and Cognitive Disorders” (Molecules, 2023).
Like-named read-outs stand apart in the source and are kept apart here.

Experiments:
[1] = biological target: T1, MOR (Homo sapiens, UniProt P35372); assay: PDSP radioligand binding at MOR; details: 1.5 h
T1 construct: purchased NIMH Psychoactive Drug Screening Program (PDSP)
Description: (§1) Opioid receptors are a family of inhibitory G-coupled protein receptors where opioids act as the ligand. The kappa opioid receptors (KOR), µ and δ opioid receptors (MOR and DOR), and nociception opioid receptor (NOP) fall under the family of opioids receptors. It has been reported that oxadiazole imidazodiazepines can mediate analgesic and anti-inflammatory properties mediated also by the κ opioid receptor (KOR). The binding at KOR is usually silent. The affinities of the test compounds for KOR, DOR, and MOR were determined using radioligand binding assays at a screening concentration of 10,000 nM in collaboration with the National Institute of Mental Health’s Psychoactive Drug Screening Program (PDSP), as mentioned before. Concentration-dependent experiments were conducted to determine Ki values for the compounds that exceeded more than 50% radioligand displacement in primary binding assays.
(§2) The NIMH PDSP assay protocol book [https://kidbdev.med.unc.edu/databases/PDSP%20Protocols%20II%202013-03-28.pdf accessed on 23 April 2023]. describes the protocols for primary and secondary radio-ligand binding assays. These assays were carried out in a final volume of 125 µL per well in the appropriate binding buffer.
(§3) The binding of a ligand to a receptor, ion channel, or transporter was determined in the […] of 10 µM of the appropriate reference compound. […] Plates were incubated in the dark for 90 min at rt, and the reactions were stopped by vacuum filtration onto 0.3% polyethyleneimine (PEI) soaked 96-well filter mats using a 96-well Filtermateharvester. This was followed by three washes with cold PBS buffer. Radioactivity was then counted on a Microbeta counter. Nonlinear regression was used to analyze the data with N = 6 replicates.

[2] = biological target: T2, DOR (Homo sapiens, UniProt P41143); assay: PDSP radioligand binding at DOR
T2 construct: purchased NIMH Psychoactive Drug Screening Program (PDSP)
Description: as §1, §2, §3

[3] = biological target: T3, 5-HT2A (Homo sapiens, UniProt P28223); assay: PDSP primary binding 5-HT2A; details: 1.5 h; primary binding, 10,000 nM; last figure of the line = mean of the 4 before it; read-out: 5-HT2A, PDSP raw data, mean
T3 construct: purchased NIMH Psychoactive Drug Screening Program (PDSP)
Method: (§4) To determine if any off-target receptor-binding effects are present, all the novel ligands were sent to the National Institute of Mental Health (NIMH), Psychoactive Drug Screening Program (PDSP). The ligands were screened over a panel of 47 receptors, ion channels, and transporters to determine any other possible interactions with […]. The hERG-binding was also determined. […] No binding of the test compounds to calcium channels was observed. […] It is necessary to screen the compounds for hERG-binding during the early process of drug discovery. The unintentional binding of many drugs to hERG can cause blockade of hERG K+ channels in the heart, which can cause many side effects including cardiac arrhythmias and sudden death. […] All of the α5 imidazodiazepines were tested for hERG-binding.
as §2, §3

[4] = biological target: T4, 5-HT5A (Homo sapiens, UniProt P47898); assay: PDSP primary binding 5-HT5A; details: 1.5 h; primary binding, 10,000 nM; last figure of the line = mean of the 4 before it; read-out: 5-HT5A, PDSP raw data, mean
T4 construct: purchased NIMH Psychoactive Drug Screening Program (PDSP)
Method: as §4, §2, §3

[5] = biological target: T5, A1 (Homo sapiens, UniProt P30542); assay: PDSP primary binding A1; details: 1.5 h; primary binding, 10,000 nM; last figure of the line = mean of the 4 before it; read-out: A1, PDSP raw data, mean
T5 construct: purchased NIMH Psychoactive Drug Screening Program (PDSP)
T5 sequence (P30542 1-326): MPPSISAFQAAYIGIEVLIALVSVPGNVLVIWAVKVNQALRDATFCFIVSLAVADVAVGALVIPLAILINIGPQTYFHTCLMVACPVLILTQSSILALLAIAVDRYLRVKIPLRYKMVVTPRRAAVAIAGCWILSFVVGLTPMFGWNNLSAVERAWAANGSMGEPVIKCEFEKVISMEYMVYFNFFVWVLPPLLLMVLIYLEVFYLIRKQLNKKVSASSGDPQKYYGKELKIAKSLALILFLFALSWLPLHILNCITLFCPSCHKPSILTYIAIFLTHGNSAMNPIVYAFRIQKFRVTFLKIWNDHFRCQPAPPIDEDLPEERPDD
Method: as §4, §2, §3

[6] = biological target: T6, D1 (Homo sapiens, UniProt P21728); assay: PDSP primary binding D1; details: 1.5 h; primary binding, 10,000 nM; last figure of the line = mean of the 4 before it; read-out: D1, PDSP raw data, mean
T6 construct: purchased NIMH Psychoactive Drug Screening Program (PDSP)
Method: as §4, §2, §3

[7] = test system: NR2B; assay: PDSP primary binding NR2B; details: primary binding, 10,000 nM; last figure of the line = mean of the 4 before it
Method: as §4, §2, §3

[8] = biological target: T7, NTS1 (Homo sapiens, UniProt P30989); assay: PDSP primary binding NTS1; details: primary binding, 10,000 nM; last figure of the line = mean of the 4 before it; read-out: NTS1, PDSP raw data, mean
T7 construct: purchased NIMH Psychoactive Drug Screening Program (PDSP)
Method: as §4, §2, §3

[9] = biological target: T8, Alpha2Beta4 (Rattus norvegicus, UniProt P12389+P12392); assay: PDSP primary binding Alpha2Beta4; details: primary binding, 10,000 nM; last figure of the line = mean of the 4 before it; read-out: Alpha2Beta4, PDSP raw data, mean
T8 construct: purchased NIMH Psychoactive Drug Screening Program (PDSP)
Method: as §4, §2, §3

[10] = biological target: T9, V1B (Homo sapiens, UniProt P47901); assay: PDSP primary binding V1B; details: primary binding, 10,000 nM; last figure of the line = mean of the 4 before it; read-out: V1B, PDSP raw data, mean
T9 construct: purchased NIMH Psychoactive Drug Screening Program (PDSP)
T9 sequence (P47901 1-424): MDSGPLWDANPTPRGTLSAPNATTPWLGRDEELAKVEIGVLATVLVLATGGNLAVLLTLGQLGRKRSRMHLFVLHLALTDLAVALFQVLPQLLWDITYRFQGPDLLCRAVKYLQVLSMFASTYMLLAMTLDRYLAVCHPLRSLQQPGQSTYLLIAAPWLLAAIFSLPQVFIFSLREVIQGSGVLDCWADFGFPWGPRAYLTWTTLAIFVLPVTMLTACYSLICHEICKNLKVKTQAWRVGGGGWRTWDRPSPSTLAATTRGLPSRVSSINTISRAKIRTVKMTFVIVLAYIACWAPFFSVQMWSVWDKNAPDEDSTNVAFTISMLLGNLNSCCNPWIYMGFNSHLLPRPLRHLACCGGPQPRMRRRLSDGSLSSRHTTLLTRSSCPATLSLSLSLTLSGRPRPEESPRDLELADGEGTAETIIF
Method: as §4, §2, §3

[11] = at 10,000 nM, N = 5, [3H]-DAMGO 1.20 nM, read-out: Primary Binding %MOR
[12] = primary binding, 10,000 nM, last figure of the line = mean of the 4 before it, read-out: MOR, PDSP raw data, mean
[13] = at 10,000 nM, N = 5, [3H]-DADLE 2.69 nM, read-out: Primary Binding %DOR
[14] = primary binding, 10,000 nM, last figure of the line = mean of the 4 before it, read-out: DOR, PDSP raw data, mean

T2 sequence (P41143 whole entry): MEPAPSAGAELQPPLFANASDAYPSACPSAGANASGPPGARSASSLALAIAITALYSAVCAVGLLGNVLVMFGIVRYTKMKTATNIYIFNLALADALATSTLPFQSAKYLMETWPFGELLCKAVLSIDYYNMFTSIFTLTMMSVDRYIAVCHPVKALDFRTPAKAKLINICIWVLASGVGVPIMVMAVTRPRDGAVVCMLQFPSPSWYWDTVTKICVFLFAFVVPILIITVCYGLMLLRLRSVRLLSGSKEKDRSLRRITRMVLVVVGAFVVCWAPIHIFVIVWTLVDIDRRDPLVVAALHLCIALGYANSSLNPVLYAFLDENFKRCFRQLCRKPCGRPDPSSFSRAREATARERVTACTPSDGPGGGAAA
T7 sequence (P30989 whole entry): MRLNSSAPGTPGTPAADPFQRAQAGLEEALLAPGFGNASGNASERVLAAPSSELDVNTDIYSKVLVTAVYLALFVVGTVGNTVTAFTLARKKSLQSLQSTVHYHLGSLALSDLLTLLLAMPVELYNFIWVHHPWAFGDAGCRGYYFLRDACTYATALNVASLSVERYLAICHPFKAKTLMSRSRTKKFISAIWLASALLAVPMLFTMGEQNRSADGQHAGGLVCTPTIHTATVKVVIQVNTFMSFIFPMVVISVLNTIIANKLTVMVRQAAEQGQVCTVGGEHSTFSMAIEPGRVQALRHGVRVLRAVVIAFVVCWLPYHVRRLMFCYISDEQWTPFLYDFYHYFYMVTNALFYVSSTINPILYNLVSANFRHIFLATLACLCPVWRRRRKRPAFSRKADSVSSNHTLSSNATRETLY
T6 sequence (P21728 whole entry): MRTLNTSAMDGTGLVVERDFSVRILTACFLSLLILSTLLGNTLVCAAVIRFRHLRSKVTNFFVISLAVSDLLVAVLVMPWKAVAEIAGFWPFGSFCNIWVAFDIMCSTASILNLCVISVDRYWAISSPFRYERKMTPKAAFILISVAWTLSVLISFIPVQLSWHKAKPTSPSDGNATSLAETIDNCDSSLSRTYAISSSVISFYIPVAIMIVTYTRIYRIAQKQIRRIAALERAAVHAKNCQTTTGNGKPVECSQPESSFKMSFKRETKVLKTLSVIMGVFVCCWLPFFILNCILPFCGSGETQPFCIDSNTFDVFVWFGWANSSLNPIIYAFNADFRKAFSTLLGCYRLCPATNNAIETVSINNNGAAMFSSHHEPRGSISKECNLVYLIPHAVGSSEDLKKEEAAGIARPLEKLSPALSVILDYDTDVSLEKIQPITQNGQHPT
T4 sequence (P47898 whole entry): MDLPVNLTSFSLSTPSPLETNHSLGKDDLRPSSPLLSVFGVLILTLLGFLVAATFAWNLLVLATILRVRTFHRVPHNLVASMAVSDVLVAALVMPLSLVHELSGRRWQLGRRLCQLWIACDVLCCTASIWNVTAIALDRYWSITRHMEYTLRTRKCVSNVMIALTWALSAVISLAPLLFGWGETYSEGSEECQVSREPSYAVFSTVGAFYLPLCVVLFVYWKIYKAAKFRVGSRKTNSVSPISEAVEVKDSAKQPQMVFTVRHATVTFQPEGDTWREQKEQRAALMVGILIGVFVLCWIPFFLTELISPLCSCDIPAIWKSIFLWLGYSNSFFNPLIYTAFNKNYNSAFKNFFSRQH
T1 sequence (P35372 whole entry): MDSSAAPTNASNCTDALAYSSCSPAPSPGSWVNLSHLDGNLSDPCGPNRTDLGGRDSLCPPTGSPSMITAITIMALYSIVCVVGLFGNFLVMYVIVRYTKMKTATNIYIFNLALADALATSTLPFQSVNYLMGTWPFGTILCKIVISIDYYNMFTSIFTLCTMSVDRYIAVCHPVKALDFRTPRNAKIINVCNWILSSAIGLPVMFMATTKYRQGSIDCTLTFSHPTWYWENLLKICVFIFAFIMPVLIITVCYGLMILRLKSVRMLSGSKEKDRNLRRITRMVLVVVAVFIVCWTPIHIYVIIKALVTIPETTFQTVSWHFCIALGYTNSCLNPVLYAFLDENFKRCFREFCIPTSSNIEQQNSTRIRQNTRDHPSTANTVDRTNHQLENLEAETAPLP
T3 sequence (P28223 whole entry): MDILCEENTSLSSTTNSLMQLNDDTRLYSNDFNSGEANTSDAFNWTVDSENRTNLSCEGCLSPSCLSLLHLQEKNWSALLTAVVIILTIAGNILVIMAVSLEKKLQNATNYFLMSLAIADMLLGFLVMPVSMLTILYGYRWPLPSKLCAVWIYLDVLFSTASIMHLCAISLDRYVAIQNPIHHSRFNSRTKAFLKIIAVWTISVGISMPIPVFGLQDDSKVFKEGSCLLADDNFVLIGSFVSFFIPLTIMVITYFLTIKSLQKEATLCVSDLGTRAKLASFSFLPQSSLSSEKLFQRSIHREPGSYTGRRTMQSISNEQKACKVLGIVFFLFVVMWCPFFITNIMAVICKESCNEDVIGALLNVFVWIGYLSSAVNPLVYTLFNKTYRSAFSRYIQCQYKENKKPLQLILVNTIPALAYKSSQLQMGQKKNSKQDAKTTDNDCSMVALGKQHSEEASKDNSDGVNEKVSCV
T8 sequence (P12389 28-511): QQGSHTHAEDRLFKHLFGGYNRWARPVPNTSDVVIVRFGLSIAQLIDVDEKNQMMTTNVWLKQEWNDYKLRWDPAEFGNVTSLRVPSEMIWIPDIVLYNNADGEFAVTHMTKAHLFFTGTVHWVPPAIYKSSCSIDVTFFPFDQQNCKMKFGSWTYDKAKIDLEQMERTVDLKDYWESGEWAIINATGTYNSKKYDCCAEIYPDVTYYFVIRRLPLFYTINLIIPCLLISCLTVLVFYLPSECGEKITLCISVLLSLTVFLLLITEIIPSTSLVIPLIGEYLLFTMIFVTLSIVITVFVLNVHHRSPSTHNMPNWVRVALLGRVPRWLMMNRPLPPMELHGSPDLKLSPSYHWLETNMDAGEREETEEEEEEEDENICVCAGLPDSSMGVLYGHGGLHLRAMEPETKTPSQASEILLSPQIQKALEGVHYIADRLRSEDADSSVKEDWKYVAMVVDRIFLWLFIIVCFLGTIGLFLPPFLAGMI
T8 sequence (P12392 21-495): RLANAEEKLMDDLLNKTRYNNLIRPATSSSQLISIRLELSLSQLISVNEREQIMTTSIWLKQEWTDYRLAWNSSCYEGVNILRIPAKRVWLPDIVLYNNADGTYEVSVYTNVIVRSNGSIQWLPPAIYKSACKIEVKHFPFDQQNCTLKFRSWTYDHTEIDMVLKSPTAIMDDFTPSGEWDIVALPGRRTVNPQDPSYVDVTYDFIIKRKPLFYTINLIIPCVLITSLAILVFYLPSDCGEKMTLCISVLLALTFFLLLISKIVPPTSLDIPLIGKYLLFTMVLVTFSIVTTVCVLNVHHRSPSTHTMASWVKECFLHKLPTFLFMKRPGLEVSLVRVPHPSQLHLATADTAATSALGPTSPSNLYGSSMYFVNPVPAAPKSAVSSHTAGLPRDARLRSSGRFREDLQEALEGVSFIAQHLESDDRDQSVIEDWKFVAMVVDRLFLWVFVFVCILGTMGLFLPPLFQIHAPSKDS

Structure (SMILES) | inhibition at 10 µM [1, 11] [%] | inhibition at 10 µM [1, 12] [%] | inhibition at 10 µM [2, 13] [%] | inhibition at 10 µM [2, 14] [%] | inhibition at 10 µM [3] [%] | inhibition at 10 µM [4] [%] | inhibition at 10 µM [5] [%] | inhibition at 10 µM [6] [%] | NR2B, PDSP raw data, mean [7] [%] | inhibition at 10 µM [8] [%] | inhibition at 10 µM [9] [%] | inhibition at 10 µM [10] [%]
CCc1noc(-c2ncn3c2CN=C(c2ccccc2F)c2cc(C4CC4)ccc2-3)n1 [Compound 44, 5-(8-Cyclopropyl-6-(2′-fluorophenyl)-4H-benzo[f]imidazo[1,5-a][1,4]diazepin-3-yl)-3-ethyl-1,2,4-oxadiazole] | 26.4 ± 6.01 | 26.4 | 81.3 ± 4.76 | 81.3 | 21.2 | 5.08 | 48.2 | 49.6 | 21.74 | -62.2 | 8.23 | 35.7
CCc1noc(-c2ncn3c2[C@@H](C)N=C(c2ccccc2F)c2cc(-c4ccccc4)ccc2-3)n1 [Compound 35, (R)-3-Ethyl-5-(6-(2′-fluorophenyl)-4-methyl-8-phenyl-4H-benzo[f]imidazo[1,5-a][1,4]diazepin-3-yl)-1,2,4-oxadiazole] | 14.8 ± 6.32 | 14.8 | 52.7 ± 4.38 | 52.7 | 32.3 | 19.5 | 27.1 | 29.2 | 24.81 | -32.6 | 10.7 | 21
C[C@H]1N=C(c2ccccc2F)c2cc(Cl)ccc2-n2cnc(-c3nc(C4CC4)no3)c21 [Compound 38, (R)-5-(8-Chloro-6-(2′-fluorophenyl)-4-methyl-4H-benzo[f]imidazo[1,5-a][1,4]diazepin-3-yl)-3-cyclopropyl-1,2,4-oxadiazole] | 30.2 ± 6.46 | 30.2 | 42.8 ± 8.94 | 42.7 | 11.6 | -2.84 | 55.5 | 43 | 31.49 | -13.2 | 0.54 | -7.2
